The target in one data set is T1, ADLP (Thermus thermophilus, UniProt Q72IQ0).
T1 sequence (Q72IQ0 1-345): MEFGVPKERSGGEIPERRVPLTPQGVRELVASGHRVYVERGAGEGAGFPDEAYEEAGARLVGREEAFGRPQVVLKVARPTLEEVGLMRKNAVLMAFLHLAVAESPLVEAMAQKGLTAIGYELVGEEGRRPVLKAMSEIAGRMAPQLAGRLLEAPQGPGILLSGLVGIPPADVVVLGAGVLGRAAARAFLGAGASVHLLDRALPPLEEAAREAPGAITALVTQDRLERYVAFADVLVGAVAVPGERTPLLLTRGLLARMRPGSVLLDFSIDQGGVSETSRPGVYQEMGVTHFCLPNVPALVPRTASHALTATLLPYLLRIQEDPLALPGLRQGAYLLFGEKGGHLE
In words: isothermal titration calorimetry. The format is binding.

In data set [1] the target is TtCoAT·ADLP complex (NAD(H) site in ADLP) (Thermus thermophilus, UniProt Q72IQ0). In words: isothermal titration calorimetry. The data set is classed as binding.
Data set [2] relates to CCCC(=O)SCCNC(=O)CCNC(=O)[C@H](O)C(C)(C)COP(=O)(O)OP(=O)(O)OC[C@H]1O[C@@H](n2cnc3c(N)ncnc32)[C@H](O)[C@@H]1OP(=O)(O)O. In words: purified protein. To be noted: 100 mM acetate as co-substrate, pH 7.5, no NAD+.

The record followed here is publication doi:10.1101/2025.10.31.685773v1 (biorxiv, 2025).

Regarding `NC(=O)C1=CN([C@@H]2O[C@H](COP(=O)(O)OP(=O)(O)OC[C@H]3O[C@@H](n4cnc5c(N)ncnc54)[C@H](O)[C@@H]3O)[C@@H](O)[C@H]2O)C=CC1` [NADH], the equilibrium dissociation constant (Kd) at ADLP was 0.22 µM; in data set [1] it was 0.34 ± 0.051 µM.
On to `NC(=O)c1ccc[n+]([C@@H]2O[C@H](COP(=O)(O)OP(=O)(O)OC[C@H]3O[C@@H](n4cnc5c(N)ncnc54)[C@H](O)[C@@H]3O)[C@@H](O)[C@H]2O)c1` [NAD^+], for which the results for the Kd (at ADLP; in data set [1]) were 9.1 µM and 3.1 ± 0.33 µM, respectively.
As to “TtCoAT·ADLP (CoA transferase site) (Thermus thermophilus HB27)”, the Michaelis constant (Km) in data set [2] is 33.1 ± 2.8 µM.

By Kd is commonly meant the free concentration of one partner at which half of the binding sites on the other are occupied at equilibrium, for simple one-to-one binding. One may read the Km as the concentration of substrate that gives half-maximal velocity.
